Values joined by “and” are separate entries in the source; they are usually repeats but may differ in a detail not shown here. Equal values may be shown once.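 How tested: cells in 96-well plates exposed to compound for 48 hours at five concentrations. GI50 = concentration required for 50% inhibition of growth. TGI: concentration producing complete growth inhibition.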
How the values were obtained:
Experiment in all cases: NCI anticancer screen, dose series, 48 h
A498 renal = tested on: A498 renal
BT-549 breast = tested on: BT-549 breast
EKVX NSCLC = tested on: EKVX NSCLC
HCC-2998 colon = tested on: HCC-2998 colon
MDA-MB-231 breast = tested on: MDA-MB-231 breast
NCI-H226 lung = tested on: NCI-H226 lung
NCI/ADR-RES ovarian = tested on: NCI/ADR-RES ovarian
OVCAR-4 ovarian = tested on: OVCAR-4 ovarian
SNB-75 CNS = tested on: SNB-75 CNS
SR leukemia = tested on: SR leukemia

| Structure (SMILES) | GI50 (A498 renal) | TGI (A498 renal) | GI50 (BT-549 breast) | TGI (BT-549 breast) | GI50 (EKVX NSCLC) | TGI (EKVX NSCLC) | GI50 (HCC-2998 colon) | TGI (HCC-2998 colon) | GI50 (MDA-MB-231 breast) | TGI (MDA-MB-231 breast) | GI50 (NCI-H226 lung) | TGI (NCI-H226 lung) | GI50 (NCI/ADR-RES ovarian) | TGI (NCI/ADR-RES ovarian) | GI50 (OVCAR-4 ovarian) | TGI (OVCAR-4 ovarian) | GI50 (SNB-75 CNS) | TGI (SNB-75 CNS) | GI50 (SR leukemia) | TGI (SR leukemia) |
| --- | --- | --- | --- | --- | --- | --- | --- | --- | --- | --- | --- | --- | --- | --- | --- | --- | --- | --- | --- | --- |
| COc1cc(-c2nc(SCC(=O)Nc3ccc(C(C)=O)cc3)[nH]c(=O)c2C#N)cc(OC)c1OC | 21.3 µM | 85 µM | 32 µM | 99.7 µM | > 100 µM | > 100 µM | > 100 µM | > 100 µM | 38.7 µM | > 100 µM | 89.8 µM | > 100 µM | > 100 µM | > 100 µM | 82.9 µM | > 100 µM | 28.5 µM | > 100 µM | 19 µM | > 100 µM |
| C=C1C(=O)O[C@H]2[C@H]1[C@H](OC(=O)/C(C)=C\C)C[C@]1(CO1)[C@@H]1[C@H](OC(C)=O)C=C(C)[C@]21O | – | > 100 µM | – | 24.4 µM | – | 33.8 µM | – | 35.5 µM | – | 39.5 µM | – | > 61.2 µM | – | 57.4 µM | – | > 100 µM | – | > 100 µM | – | 28.5 µM |
| CCCCCCNC(=O)Oc1ccc(/C(=C(\C)c2ccccc2)c2ccc(OCCN3CCCCC3)cc2)cc1 | 7.46 µM | 21.6 µM | 2.38 µM | 7.1 µM | 4.11 µM | 18 µM | 2.96 µM | 8.92 µM | 2.09 µM | 4.96 µM | 5.91 µM | 21.4 µM | 3.12 µM | 12.7 µM | 3.04 µM | 10.7 µM | 2.01 µM | 10.1 µM | 1.73 µM | 4.39 µM |
| O=C1C(Cl)=C(Nc2cccc(C(F)(F)F)c2)C(=O)N1Cc1ccccc1Cl | 5.06 µM | 19.7 µM | 1.95 µM | 18.1 µM | 15.7 µM | 37 µM | 12.6 µM | 28 µM | 2.67 µM | 17.4 µM | 0.0858 µM | 3.01 µM | 10.1 µM | 26.8 µM | 6.58 µM | 26.5 µM | 0.996 µM | 9.55 µM | 3.72 µM | 28 µM |
| CC1CCC2C(C)C3C(CC4C5CC=C6CC(OC7OC(CO)C(O)C(OC8OC(CO)C(O)C(O)C8O)C7OC7OC(C)C(O)C(O)C7O)CCC6(C)C5CCC43C)N2C1 (configuration not stated) | > 2.5 µg/mL | 31.7 µM and > 2.5 µg/mL | > 2.5 µg/mL | 31.9 µM and > 2.5 µg/mL | > 2.5 µg/mL | 21.9 µM and > 2.5 µg/mL | > 2.5 µg/mL | 35 µM and > 2.5 µg/mL | > 2.5 µg/mL | 27.8 µM and > 2.5 µg/mL | > 2.5 µg/mL | 44.3 µM and > 2.5 µg/mL | > 2.5 µg/mL | 34.8 µM and > 2.5 µg/mL | > 2.5 µg/mL | 20.3 µM and > 2.5 µg/mL | > 2.5 µg/mL | 24.7 µM and > 2.5 µg/mL | > 2.5 µg/mL | 29 µM and > 2.5 µg/mL |
| COc1ccc(/C(Cl)=C(\C=O)c2ccc(OC)c(OC)c2)cc1OC | – | > 100 µM | – | > 100 µM | – | > 100 µM | – | > 100 µM | – | > 100 µM | – | 99.9 µM | – | > 100 µM | – | > 100 µM | – | 41 µM | – | > 100 µM |
| O=C1C=CN(C2OC(CO)C(O)C2O)C(=O)C1 (configuration not stated) | – | > 2500 µM | – | > 2500 µM | – | > 2500 µM | – | 625 µM and > 2500 µM | – | > 2500 µM | > 625 µM | > 2500 µM | – | 625 µM and > 2500 µM | > 625 µM and 953 µM | > 2500 µM | – | > 2500 µM | – | > 2500 µM |
| COc1ccc(NC(=O)c2sc3nc(C)c(C(O)c4ccc(OC)cc4)cc3c2N)cc1 (configuration not stated) | 0.156 µM | 39.1 µM | 1.81 µM | > 50 µM | 3.13 µM | > 50 µM | 0.804 µM | 2.89 µM | 2.06 µM | > 50 µM | 3.54 µM | > 50 µM | 1.28 µM | 4.41 µM | 5.12 µM | > 50 µM | 0.815 µM | 17.3 µM | 0.256 µM | > 50 µM |
| CC(=O)NCCCCCCNC(C)=O | – | > 9690 µM | – | > 10000 µM | – | > 10000 µM | – | > 8610 µM | – | > 5620 µM | – | > 10000 µM | – | > 10000 µM | – | > 9590 µM | – | 8830 µM | – | > 10000 µM |
| O=C(N=Nc1c(O)[nH]c2c(Cl)cc(Cl)cc12)c1ccncc1 | – | > 100 µM | – | > 100 µM | – | > 100 µM | – | > 100 µM | – | 39.4 µM | – | > 100 µM | – | 69.4 µM | – | 57.2 µM | – | 95.2 µM | – | 69.2 µM |
| CCCCCC(=O)OCC(=O)O[C@@H]1C[C@]2(C(C)C)O[C@@]1(C)[C@@H]1CC[C@@H](C)[C@H]1[C@@H]2OC(=O)/C=C/c1ccccc1 | 0.0525 µM | 0.306 µM | 0.0923 µM | 14.4 µM | > 54.5 µM | > 100 µM | > 62.3 µM | > 100 µM | > 57.5 µM | > 80.5 µM | 50.6 µM | > 100 µM | 0.291 µM | > 70.6 µM | 26.5 µM | > 71.5 µM | 42.4 µM | > 87.6 µM | 19.7 µM | > 100 µM |
| O=C(NCCN1CCOCC1)Nc1ccc(-c2cc3c(Nc4ccc(Oc5cccc(C(F)(F)F)c5)c(Cl)c4)ncnc3s2)cc1 | 2.04 µM | 7.79 µM | 2.32 µM | 11.1 µM | 2.27 µM | 8.61 µM | 1.19 µM | 3.77 µM | 1.07 µM | 2.54 µM | 3.18 µM | 17.1 µM | 6.74 µM | 19.9 µM | 3.26 µM | 11.5 µM | 0.642 µM | 1.9 µM | 1.47 µM | 27.6 µM |
| CCCC(=O)NC(c1ccc2c(c1)OCO2)c1ccc2cccnc2c1O (configuration not stated) | 3.22 µM | 12.6 µM | 2.09 µM | 83.7 µM | 1.73 µM | 21.4 µM | 2.21 µM | > 100 µM | 1.64 µM | > 100 µM | 2.21 µM | 8.63 µM | 0.443 µM | 16.6 µM | 0.375 µM | 6.02 µM | 2.18 µM | 73 µM | 0.402 µM | > 100 µM |
| O=C(O)C(Br)C(Br)c1ccccc1[N+](=O)[O-] (configuration not stated) | – | > 100 µM | – | > 100 µM | – | > 100 µM | – | > 100 µM | – | > 100 µM | – | > 100 µM | – | > 100 µM | – | > 100 µM | – | > 100 µM | – | > 100 µM |

Source: PubChem BioAssay (NCI)
